# Measurements from patent US8222242B2, “Nitric oxide releasing compounds” (The Regents of the University of California, priority 2008, dated 2012).
# Legend:
# [1] = system: CS-54 rat vascular smooth muscle cells
# Procedure: CS-54 rat vascular smooth muscle cells were treated with the indicated concentrations of NO-Cbi for 1 hour (A), or 10 μM NO-Cbi for the indicated times (B and C). […] (C) Cell extracts were clarified by centrifugation, and nitrite and nitrate in the extracts were measured by an enhanced Griess reagent method. In A and B, “Con” refers to control, which was cells treated with water. As indicated, the effects of 30 μM cobinamide (Cbi) and 100 μM 8-CPT-cGMP (cGMP) are shown for comparison. In A and B, similar results were obtained in two other experiments.
# Nitrite and nitrate were measured in CS-54 cell extracts and fly extracts using a kit from Active Motif based on an enhanced Griess reagent, as described previously (Broderick K E et al. (2006) FASEB J. 20:1865-73).
# [2] = incubated with excess heme; cited from earlier work
# [3] = system: mice; assay type: in vivo, mouse; settings: 0.6 nmol three times at 32 minute intervals
# [4] = system: isolated mouse hearts; assay: Coronary flow in isolated perfused mouse hearts (Langendorff)
# Procedure: (§1) Hearts and aortas were removed from NIH Swiss mice anesthetized with sodium nembutal, and coronary flow was measured in the hearts using a Langendorff preparation (FIG. 5a) and relaxation of aortic rings was measured after inducing constriction of the rings with prostaglandin F2α (FIG. 5b). The hearts and aortic rings were treated with a range of concentrations of NO-Cbi (filled circles), nitroglycerin (open circles, dotted line, FIG. 5a), and sodium nitroprusside (open circles, FIG. 5b). Coronary flow was measured on the same hearts for both NO-Cbi and nitroglycerin after an appropriate wash-out period between drugs, and aortic ring relaxation was measured on two rings from the same aorta for NO-Cbi and sodium nitroprusside. The data are the mean of two independent experiments performed on two separate hearts in each experiment (FIG. 5a), and the mean±SEM of two independent experiments performed on three separate aortic rings in each experiment (FIG. 5b).
# Coronary flow was measured in isolated perfused mouse hearts in a Langendorff system, and was 10.8±0.5 ml/min/g wet weight (n=7 hearts) under basal conditions. […] The latter value is similar to maximal coronary flow of 24.6±1.8 ml/min/g wet weight obtained with 62 μM adenosine. For nitroglycerin to increase coronary flow to that of NO-Cbi, the nitroglycerin concentration had to be increased to 770 μM, or about 100-fold greater than the NO-Cbi concentration (FIG. 5a).
# [5] = system: mouse aortic rings; assay: Relaxation of mouse aortic rings constricted with prostaglandin F2α; settings: rings pretreated with 2 μM prostaglandin F2α; read-out: EC50, concentration that induced half-maximal relaxation
# Procedure: as §1
# Relaxation of aortic contraction was measured in 3 mm rings cut from thoracic aortas of mice; the rings were pretreated with 2 μM prostaglandin F2α to produce 0.5-1 g of active tension.
# [6] = system: mice; assay type: in vivo, mouse
# Procedure: Mice were anesthetized with 1.5% isoflurane gas, and after achieving a stable blood pressure and pulse (about 10 minutes), they were injected intraperitoneally with 100 μl of […] 8 mM Cbi(II) (open circles, solid line), 8 mM NO-Cbi (filled circles, dashed line), or 8 mM nitroglycerin (squares, dotted lines) (panels a and b). Control refers to anesthetized mice who received 100 μl water (triangles, solid line). In panel C, 100 μl of 6 mM NO-Cbi was injected at 0, 32, and 64 minutes as indicated by the arrows. Systolic and diastolic blood pressures, and pulse rate, were measured at the indicated times on the tail artery using a non-invasive tail cuff. The percent change in mean arterial pressure (A and C), and pulse rate (B and C) are shown. For panels A and B, data are the mean±SD of results from five mice for NO-Cbi studied on separate days, and four mice for the other conditions. […] Data in panel C are the mean±SD of results from three mice studied on different days.
# Pulse, and systolic and diastolic blood pressures, were measured non-invasively in the tail artery of mice by restraining mice on a warming platform maintained at ˜38° C. The base of the tail was placed in a computer-controlled pneumatic cuff, and the distal tail was placed in a sensor assembly consisting of a light emitting diode and a photodiode detector. Baseline measurements were made with the mice awake in a dark chamber. The mice were then anesthetized with 3% isoflurane in an induction chamber, and returned to the platform where they received 1.5% isoflurane with 2 liter per minute of oxygen via a nose cone; the isoflurane caused a small, but stable, drop in blood pressure. Drugs in a volume of 100 ul were injected intraperitoneally into the mice, and pulse and blood pressure were measured every 5-15 minute, taking five readings at each time point.
# To determine the effect of NO release from NO-Cbi in an intact mammal, blood pressure and pulse of mice injected intraperitoneally with NO-Cbi were measured.
# [7] = system: Malpighian tubules isolated from D. melanogaster; assay: Malpighian tubule fluid secretion; set-up: species or system Drosophila melanogaster
# Procedure: Malpighian tubules are the osmoregulatory organs of D. melanogaster, corresponding to vertebrate kidneys. Tubular fluid secretion is stimulated by NO and cGMP, and fluid secretion rates were measured as described previously (Broderick K E et al. (2005) J. Biol. Chem. 280:8678-85). Briefly, the Malpighian tubule pair of a fly was resected and suspended in mineral oil. […]
# Malpighian tubules are an excellent model for studying the effects of a drug on an intact organ system (Broderick K E et al. (2003) Am. J. Physiol. Cell Physiol. 285:C1207-18). […] Deta-NONOate may not be affected as much by cysteine in the medium, because it has a slower NO release rate and the intact drug can be transported intracellularly before much NO is released.
# [8] = system: vasodilator-stimulated phosphoprotein (VASP) phosphorylated on Ser239 in CS-54 rat vascular smooth muscle cells; assay: VASP phosphorylation in CS-54 cells (immunoblot); assay type: cell-based
# Procedure: CS-54 rat vascular smooth muscle cells were treated with the indicated concentrations of NO-Cbi for 1 hour (A), or 10 μM NO-Cbi for the indicated times (B and C). […] In A and B, “Con” refers to control, which was cells treated with water. As indicated, the effects of 30 μM cobinamide (Cbi) and 100 μM 8-CPT-cGMP (cGMP) are shown for comparison. In A and B, similar results were obtained in two other experiments.
# Briefly, cells treated with an NO-releasing agent were extracted rapidly in a sodium dodecyl sulfate (SDS) containing sample buffer, and the cell extracts were subjected to SDS-polyacrylamide gel electrophoresis. Phospho-VASP was assessed by immunoblotting using an antibody specific for VASP phosphorylated on Ser259 (Smolenski A et al. (1998) J. Biol. Chem. 273:20029-35).
# To determine if NO released from NO-Cbi can have a physiologic effect in cultured cells, vasodilator-stimulated phosphoprotein (VASP) phosphorylation was assessed in CS-54 cells.
smiles,measurement,setting,value
"CC1=C2[N+]3=C(C=C4[N+]5=C(C(C)=C6[N]7C(C(CC(N)=O)C6(C)CCC(=O)NCC(C)O)C6(C)[N+](=C1C(CCC(N)=O)C6(C)CC(N)=O)[Co-3]753[N]=O)C(CCC(N)=O)C4(C)C)C(CCC(N)=O)C2(C)CC(N)=O (stereo not shown) [NO-Cbi, nitrosyl cobinamide]",increased nitrite and nitrate as share of the NO added as NO-Cbi,"[1]; 10 μM NO-Cbi, CS-54 cells",55%
same,nitrite and nitrate in the culture medium,"[1]; 10 μM NO-Cbi, CS-54 cells",increased nitrite and nitrate
same,half-life of NO-Cbi estimated from nitrite and nitrate accumulation,[1]; rat,30 min and 60 min
same,half-life,[2],short
same,blood pressure and heart rate on repeated injections,[3],a decrease in blood pressure and increase in heart rate was observed with each injection
same,low concentration that significantly increased coronary flow,[4],20 nM
same,coronary flow,[4]; 7 μM infused,22.8±1.2 ml/min/g wet weight
same,increase of coronary flow,[4]; 7 μM infused,more than two-fold
same,EC50,[5],195 ± 12 nM
same,systolic and diastolic blood pressure,"[6]; 0.8 μmol (100 μl of 8 mM) intraperitoneally, anesthetized mice",rapidly reduced
same,increase of pulse rate compared with nitroglycerin,[6]; 0.8 μmol intraperitoneally,more pronounced than that observed with nitroglycerin
same,time required for blood pressure to return to control values,[6]; 0.8 μmol intraperitoneally,~45 min
same,blood pressure reduction compared with nitroglycerin,"[6]; equimolar amounts, intraperitoneally",reduced blood pressure more potently than an equimolar amount of nitroglycerin
same,half-life of NO-Cbi in the mice,"[6]; mouse, in vivo",30 to 60 min
same,pulse rate above control values,[6]; until 75 minutes,more than 10%
same,rate of tubular secretion relative to cobinamide-treated tubules,"[7]; 1 mM, 70 minute time point (50 minutes after adding drugs), half-strength Schneider's medium",1.6 times
same,fluid secretion,"[7]; 1 mM, half-strength Schneider's medium","stimulated fluid secretion to a similar extent as 100 μM 8-CPT-cGMP, but somewhat less than 500 μM Deta-NONOate"
same,fluid secretion,[7]; full strength of Schneider's medium,no effect
same,course of VASP phosphorylation after the maximum,[8]; 10 μM NO-Cbi,declined over the ensuing 4 hours
same,time at which effect on VASP phosphorylation could be observed,[8]; 10 μM NO-Cbi,15 min
same,time of maximal effect on VASP phosphorylation,[8]; 10 μM NO-Cbi,30 to 60 min
same,VASP phosphorylation,"[8]; 1 to 30 μM, 1 hour, CS-54 cells",induced VASP phosphorylation
